Measured values from patent US20190185829A1, “Preparation of lipase with improved ester synthesis activity by using surfactants” (Jiangnan University, priority 2017, published 2019).

Tests used:
Type in all cases: biochemical
[1] = target: T1, Candida antarctica lipase CALB (Moesziomyces antarcticus, UniProt P41365); assay: Hydrolytic activity of surfactant-treated lipase CALB using pNPP as substrate; settings: protein 0.12 mg·mL^−1
T1 construct: purchased Sigma-Aldrich Co., Ltd
Text: (§1) (1) Determination of Hydrolytic Activity of the Lipase Using p-Nitrophenyl Palmitate (pNPP) as Substrate
(§2) Hydrolysis of pNPP catalyzed by lipase generates p-nitrophenol and palmitic acid. p-nitrophenol appears yellow in the buffer at pH 8.0 with the maximum absorption peak at 410 nm. Determination of hydrolytic activity can be achieved by measuring the absorbance at 410 nm.
(§3) The substrate solution A: 50 mmol·L^−1 sodium phosphate buffer (pH 8.0) containing 1.16 g·L^−1 sodium deoxycholate and 0.56 g·L^−1 arabic gum. Substrate solution B: 0.015 g pNPP is dissolved in 5 mL isopropyl alcohol. Substrate solution A and substrate solution B are mixed then stored for use afterwards.
(§4) Termination solution: 40 g·L^−1 NaOH, 93.05 g·L^−1 EDTA sodium. Add 62 uL termination solution to the reaction mixture when stopping the reaction.
(§5) Add 0.1 mL appropriately diluted enzyme solution, which is substituted by inactivated enzyme solution as the control, to 2.4 mL substrate solution above, incubate the mixture at 40° C. for 2 min and measure the absorbance at 410 nm.
(§6) one hydrolytic activity unit is defined as the amount of enzyme that catalyzes the formation of 1 μmol of p-nitrophenol in 1 minute at 40° C.
(§7) enzyme activity (U·mL^−1)=(V×A410×10^6)/(ε×t×V′) Calculation equation: […]
(§8) Specific activity: the activity of lipase per milligram of total protein in the lipase preparation. […]
(§9) Commercial lipase CALB was purchased from Sigma-Aldrich Co., Ltd. CALB is a non-immobilized lipase. Dissolve the CALB powder in water and centrifuge to obtain the supernatant containing the CALB lipase that would be regulated to improve the ester synthesis activity by adjusting the final protein concentration to 0.12 mg·mL^−1 and adding surfactants to the final concentration of 10 mM.
(§10) Commercial lipase CALB was purchased from Sigma-Aldrich Co., Ltd. and is a non-immobilized lipase. Dissolve the CALB powder in water, centrifuge to obtain the supernatant and treat the supernatant with different concentrations of surfactant DDM (the final protein concentration was 0.12 mg·mL^−1).

[2] = target: T2, Pseudomonas cepacia lipase PCL (Burkholderia cepacia, UniProt P22088); assay: Ester synthesis activity of surfactant-treated lyophilized lipase PCL by GC analysis; settings: protein 0.2 mg·mL^−1
T2 construct: purchased Sigma-Aldrich Co., Ltd
Protocol: (§11) (2) Determination of Ester Synthesis Activity of the Lipase by GC Analysis
(§12) Substrate solution A: 48.5 mL of n-octanoic acid is dissolved in 250 mL of n-heptane in a volumetric flask.
(§13) Substrate solution B: 17.5 mL of absolute ethanol is dissolved in 250 mL of n-heptane in a volumetric flask.
(§14) Internal standard: 2-hexanol/n-heptane (35 g·L^−1).
(§15) Standard sample: 10 g of n-octanoate is dissolved in 1000 mL of n-heptane in a volumetric flask.
(§16) 1 mL substrate solution A and substrate solution B are added in a 5 mL Eppendorf tube respectively, then 20 mg lipase powder (or lyophilized powder) is added. The reaction is carried out at 40° C. and with shaking at 150 rpm for 30 min. Remove the lipase powder by centrifugation or membrane filtration. Then 0.1 mL of internal standard is added in 0.4 mL of filtrate or supernatant and mixed. Measure the content of n-octanoate in the mixture above by GC analysis.
(§17) The gas chromatograph (6820, Agilent Instruments) is equipped with a AC20 (PEG20000) capillary column and a FID detector. Nitrogen was used as the carrier gas. The oven temperature was programmed to start at 90° C. for 1 min and then be elevated to 200° C. for 5 min at 10° C.·min^−1. The injector and detector temperatures were set at 250° C.
(§18) Definition of enzyme activity: One unit of ester synthesis activity is defined as the amount of enzyme that esterifies 1 micromole of n-octanoate per min.
(§19) Specific activity: the activity of lipase per milligram of total protein in the lipase preparation.
(§20) Total recovery: the percentage of the activity after a treatment to that before the treatment
(§21) Add an equal volume of high-concentration surfactant solution into the enzyme solution. The final protein concentration was […] and the surfactant concentration was 10 mM. After mixed thoroughly, the mixture was lyophilized and kept in dry condition.
as §9, with “PCL” for “CALB”, “0.2” for “0.12”
(§22) Commercial lipase PCL was purchased from Sigma-Aldrich Co., Ltd. and is a non-immobilized lipase. Dissolve the PCL powder in water, centrifuge to obtain the supernatant and treat the supernatant with different concentrations of surfactant DDM (the final protein concentration was 0.2 mg·mL^−1).

[3] = target: T2, Pseudomonas cepacia lipase PCL; assay: Hydrolytic activity of surfactant-treated lipase PCL using pNPP as substrate; settings: protein 0.2 mg·mL^−1
Text: as §1, §2, §3, §4, §5, §6, §7, §8
as §9, with “PCL” for “CALB”, “0.2” for “0.12”
as §22

[4] = target: T3, Rhizoupus oryzae lipase ROL (Rhizopus oryzae, UniProt P61872); assay: Ester synthesis activity of surfactant-treated lyophilized lipase ROL by GC analysis; settings: surfactant 10 mM, protein 0.2 mg·mL^−1
T3 construct: purchased Sigma-Aldrich Co., Ltd
Protocol: as §11, §12, §13, §14, §15, §16, §17, §18, §19, §20, §21
as §9, with “lipase ROL” for “lipase CALB”, “Ltd. ROL” for “Ltd. CALB”, “the ROL” for “the CALB”, “improve its” for “improve the”, “to 0.2” for “to 0.12”
(§23) Commercial lipase ROL was purchased from Sigma-Aldrich Co., Ltd. and is a non-immobilized lipase. Dissolve the ROL powder in water, centrifuge to obtain the supernatant and treat the supernatant with different concentrations of surfactant LPC14 (the final protein concentration was 0.2 mg·mL^−1).

[5] = tested on: Rhizopus chinensis lipase r27RCL; assay: Ester synthesis activity of surfactant-treated lyophilized lipase r27RCL by GC analysis; settings: surfactant 10 mM, protein 0.2 mg·mL^−1
Protocol: as §11, §12, §13, §14, §15, §16, §17, §18, §19, §20, §21
(§24) Commercial lipase r27RCL was purchased from Jiangsu Yiming Biological Technology Co., Ltd, which has high hydrolytic activity and low ester synthesis activity. Dissolve the r27RCL powder in water and centrifuge to obtain the supernatant containing the r27RCL lipase to adjust the ester synthesis activity (the final protein concentration was 0.2 mg·mL^−1 and the final concentration of surfactant was 10 mM, which is between 0.1×CMC^˜200×CMC of the different surfactants in Table 1).
(§25) Commercial lipase r27RCL was purchased from Jiangsu Yiming Biological Technology Co., Ltd. r27RCL is a lipase with high hydrolytic activity but low ester synthesis activity. Dissolve the r27RCL powder in water, centrifuge to obtain the supernatant and treat the supernatant with different concentrations of surfactant LPC14 (the final protein concentration was 0.2 mg·mL^−1).

[6] = target: T1, Candida antarctica lipase CALB; assay: Ester synthesis activity of surfactant-treated lyophilized lipase CALB by GC analysis; settings: protein 0.12 mg·mL^−1
Protocol: as §11, §12, §13, §14, §15, §16, §17, §18, §19, §20, §21, §9, §10

[7] = target: T3, Rhizoupus oryzae lipase ROL; assay: Hydrolytic activity of surfactant-treated lipase ROL using pNPP as substrate; settings: surfactant 10 mM, protein 0.2 mg·mL^−1
Text: as §1, §2, §3, §4, §5, §6, §7, §8
as §9, with “lipase ROL” for “lipase CALB”, “Ltd. ROL” for “Ltd. CALB”, “the ROL” for “the CALB”, “improve its” for “improve the”, “to 0.2” for “to 0.12”
as §23

[8] = tested on: Rhizopus chinensis lipase r27RCL; assay: Hydrolytic activity of surfactant-treated lipase r27RCL using pNPP as substrate; settings: surfactant 10 mM, protein 0.2 mg·mL^−1
Text: as §1, §2, §3, §4, §5, §6, §7, §8, §24, §25

[9] = surfactant concentration 0.1 x CMC
[10] = surfactant concentration 1 x CMC
[11] = surfactant concentration 10 x CMC
[12] = surfactant concentration 100 x CMC

T3 sequence (P61872 96-392): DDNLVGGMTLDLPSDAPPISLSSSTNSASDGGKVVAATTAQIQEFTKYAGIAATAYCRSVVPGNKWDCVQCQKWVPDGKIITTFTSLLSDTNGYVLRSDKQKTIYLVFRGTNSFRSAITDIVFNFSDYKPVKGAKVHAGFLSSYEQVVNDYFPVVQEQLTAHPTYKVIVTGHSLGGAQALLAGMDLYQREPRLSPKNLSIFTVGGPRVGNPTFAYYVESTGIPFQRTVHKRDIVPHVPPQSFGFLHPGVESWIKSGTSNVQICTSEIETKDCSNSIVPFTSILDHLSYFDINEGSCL
T2 sequence (P22088 45-364): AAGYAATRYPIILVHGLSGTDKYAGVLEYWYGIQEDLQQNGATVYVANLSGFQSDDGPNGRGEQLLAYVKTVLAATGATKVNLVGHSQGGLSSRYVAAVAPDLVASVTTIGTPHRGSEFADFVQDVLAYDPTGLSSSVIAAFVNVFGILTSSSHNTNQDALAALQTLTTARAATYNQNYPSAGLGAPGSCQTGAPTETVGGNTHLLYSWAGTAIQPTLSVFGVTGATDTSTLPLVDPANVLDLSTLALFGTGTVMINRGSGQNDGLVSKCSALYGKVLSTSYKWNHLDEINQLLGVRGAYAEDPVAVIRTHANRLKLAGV
T1 sequence (P41365 26-342): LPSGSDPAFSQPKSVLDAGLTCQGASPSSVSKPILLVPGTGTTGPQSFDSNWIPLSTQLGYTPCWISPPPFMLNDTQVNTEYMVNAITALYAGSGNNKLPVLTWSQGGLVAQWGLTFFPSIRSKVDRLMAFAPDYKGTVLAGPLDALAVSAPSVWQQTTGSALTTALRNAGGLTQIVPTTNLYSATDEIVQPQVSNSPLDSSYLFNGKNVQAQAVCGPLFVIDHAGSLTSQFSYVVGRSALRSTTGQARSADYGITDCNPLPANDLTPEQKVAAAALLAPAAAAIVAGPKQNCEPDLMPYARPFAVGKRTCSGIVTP

CCCCCCCCCCCCCCCC[N+](C)(C)C.[Br-] [CTAB, hexadecyl trimethyl ammonium bromide]
Hydrolytic activity, Specific activity ([1]; surfactant 10 mM): 0 U · mg^−1
Hydrolytic activity, Total recovery ([1]; surfactant 10 mM): 0%
Ester synthesis activity, Specific activity ([2]; surfactant 10 mM): 0 U · mg^−1
Ester synthesis activity, Total recovery ([2]; surfactant 10 mM): 0%
Hydrolytic activity, Specific activity ([3]; surfactant 10 mM): 75.5 U · mg^−1
Hydrolytic activity, Total recovery ([3]; surfactant 10 mM): 29%
Ester synthesis activity, Specific activity [4]: 0 U · mg^−1
Ester synthesis activity, Total recovery [4]: 0%
Ester synthesis activity, Specific activity [5]: 0 U · mg^−1
Ester synthesis activity, Total recovery [5]: 0%
Ester synthesis activity, Specific activity ([6]; surfactant 10 mM): 36.6 U · mg^−1
Ester synthesis activity, Total recovery ([6]; surfactant 10 mM): 300%
Hydrolytic activity, Specific activity [7]: 0 U · mg^−1
Hydrolytic activity, Total recovery [7]: 0%
Hydrolytic activity, Specific activity [8]: 0 U · mg^−1
Hydrolytic activity, Total recovery [8]: 0%

CCCCCCCCCCCCO[C@@H]1O[C@H](CO)[C@@H](O[C@H]2O[C@H](CO)[C@@H](O)[C@H](O)[C@H]2O)[C@H](O)[C@H]1O [DDM, n-dodecyl-ß-D-maltopyranoside]
Hydrolytic activity, Specific activity ([1]; surfactant 10 mM): 0 U · mg^−1
Hydrolytic activity, Total recovery ([1]; surfactant 10 mM): 0%
Hydrolytic activity, Specific activity [1, 9]: 2.1 U · mg^−1
Hydrolytic activity, Total recovery [1, 9]: 45%
Hydrolytic activity, Specific activity [1, 10]: 3.0 U · mg^−1
Hydrolytic activity, Total recovery [1, 10]: 75%
Hydrolytic activity, Specific activity [1, 11]: 0.7 U · mg^−1
Hydrolytic activity, Total recovery [1, 11]: 10%
Hydrolytic activity, Specific activity [1, 12]: 0 U · mg^−1
Hydrolytic activity, Total recovery [1, 12]: 0%
Ester synthesis activity, Specific activity ([2]; surfactant 10 mM): 55.6 U · mg^−1
Ester synthesis activity, Specific activity [2, 9]: 3.2 U · mg^−1
Ester synthesis activity, Total recovery [2, 9]: 58%
Ester synthesis activity, Specific activity [2, 10]: 2.9 U · mg^−1
Ester synthesis activity, Total recovery [2, 10]: 57%
Ester synthesis activity, Specific activity [2, 11]: 20.0 U · mg^−1
Ester synthesis activity, Total recovery [2, 11]: 260%
Ester synthesis activity, Specific activity [2, 12]: 101.6 U · mg^−1
Hydrolytic activity, Specific activity ([3]; surfactant 10 mM): 327.7 U · mg^−1
Hydrolytic activity, Total recovery ([3]; surfactant 10 mM): 111%
Hydrolytic activity, Specific activity [3, 9]: 499.5 U · mg^−1
Hydrolytic activity, Total recovery [3, 9]: 106%
Hydrolytic activity, Specific activity [3, 10]: 434.7 U · mg^−1
Hydrolytic activity, Total recovery [3, 10]: 99%
Hydrolytic activity, Specific activity [3, 11]: 756.7 U · mg^−1
Hydrolytic activity, Total recovery [3, 11]: 114%
Hydrolytic activity, Specific activity [3, 12]: 773.5 U · mg^−1
Hydrolytic activity, Total recovery [3, 12]: 246%
Ester synthesis activity, Specific activity [4]: 2.8 U · mg^−1
Ester synthesis activity, Specific activity [5]: 31.4 U · mg^−1
Ester synthesis activity, Specific activity ([6]; surfactant 10 mM): 101.9 U · mg^−1
Ester synthesis activity, Specific activity [6, 9]: 4.0 U · mg^−1
Ester synthesis activity, Total recovery [6, 9]: 12%
Ester synthesis activity, Specific activity [6, 10]: 14.3 U · mg^−1
Ester synthesis activity, Total recovery [6, 10]: 50%
Ester synthesis activity, Specific activity [6, 11]: 37.3 U · mg^−1
Ester synthesis activity, Total recovery [6, 11]: 73%
Ester synthesis activity, Specific activity [6, 12]: 32.6 U · mg^−1
Ester synthesis activity, Total recovery [6, 12]: 189%
Hydrolytic activity, Specific activity [7]: 42.7 U · mg^−1
Hydrolytic activity, Total recovery [7]: 116%
Hydrolytic activity, Specific activity [8]: 135.0 U · mg^−1
Hydrolytic activity, Total recovery [8]: 94%
